Measured values reported in patent US9212168B2 (priority 2011, dated 2015).

Key:
[1] = test system: HCV genotype 1b replicon; experiment: HCV genotype 1b replicon assay (Renilla luciferase readout); format: cell-based, hepatitis C virus; settings: for EC50: Hepatitis C virus, read-out: Genotype 1b; for Genotype 1b: HCV genotype 1b replicon
Procedure, shortened: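 Reported as pEC50 derived from a 4-parameter fit of Renilla luciferase activity against concentration. Replicon cells (APC144, Huh7 background) were exposed to compound for 48 h in G418-free medium with final 0.5% DMSO, after seeding at 10,000 cells/well and 4 h adherence.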

[2] = test system: HCV genotype 1a replicon; experiment: HCV genotype 1a replicon assay (NS3 protease activity readout); format: cell-based, hepatitis C virus; settings: for EC50: Hepatitis C virus, read-out: Genotype 1a, HCV genotype 1a replicon; for Genotype 1a: HCV genotype 1a replicon
Procedure, shortened: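 EC50 values came from a 4-parameter robust fit of fluorescence (ex 340, em 509 nm) produced by NS3-specific protease in lysates, assayed with 15 μM FRET substrate for 20 min at 37° C, after 48 or 72 hours of compound exposure (0.5% DMSO) of Huh7.5-derived APC89 genotype 1a replicon cells.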

Compound: COC(=O)N[C@H](C(=O)N1C[C@@H](C)C[C@H]1c1nc(-c2ccc(-c3cc(F)c(NC(=O)c4ccc(N5CCN(C(=O)C(C)(C)C)C[C@H]5C)nc4)cc3OC(F)(F)F)cc2)c[nH]1)[C@H](C)O [Example 13-20]
- EC50 [1]: < 0.1 nM
- EC50 [2]: < 0.1 nM

Compound: COC(=O)N[C@H](C(=O)N1C[C@@H](N(C)C)C[C@H]1c1nc(-c2ccc(-c3ccc(NC(=O)c4ccc(N5CCN(C(=O)[C@H]6CC6(C)C)C[C@H]5C)nc4)cc3)cc2)c[nH]1)C(C)C [Example 2-3]
- Genotype 1b [1]: D (D represents pEC50>10 (EC50<0.1 nM))
- Genotype 1a [2]: D (D represents pEC50>10 (EC50<0.1 nM))

Compound: CNC(=O)N1CCC[C@@H]1C(=O)N1C[C@@H](C)N(c2ccc(NC(=O)c3ccc(-c4ccc(-c5c[nH]c([C@@H]6C[C@H](C)CN6C(=O)[C@@H](NC(=O)OC)C(C)C)n5)cc4)c(OC(F)(F)F)c3)cn2)C[C@@H]1C [Example 4-19]
- Genotype 1b [1]: D (D represents pEC50>10 (EC50<0.1 nM))
- Genotype 1a [2]: D (D represents pEC50>10 (EC50<0.1 nM))

Compound: CNC(=O)N1C[C@@H](C)N(c2ccc(C(=O)Nc3cc(OC(F)(F)F)c(-c4ccc(-c5c[nH]c([C@@H]6C[C@H](C)CN6C(=O)[C@@H](NC(=O)OC)C(C)C)n5)cc4)cc3F)cn2)C[C@@H]1C [Example 1-16]
- Genotype 1b [1]: D (D represents pEC50>10 (EC50<0.1 nM))
- Genotype 1a [2]: D (D represents pEC50>10 (EC50<0.1 nM))

Compound: COC(=O)N[C@H](C(=O)N1C[C@@H](C)C[C@H]1c1nc(-c2ccc(-c3cc(F)c(NC(=O)c4ccc(N5CCN(C(=O)C(C)(C)CO)C[C@H]5C)nc4)cc3OC(F)(F)F)cc2)c[nH]1)C1CCOCC1 [Example 13-27]
- EC50 [1]: < 0.1 nM
- EC50 [2]: < 0.1 nM

Compound: COC[C@H]1CN(c2ccc(C(=O)Nc3cc(OC(F)(F)F)c(-c4ccc(-c5c[nH]c([C@@H]6C[C@H](C)CN6C(=O)[C@@H](NC(=O)OC)C6CCOCC6)n5)cc4)cc3Cl)cn2)CCN1C(=O)C(C)(C)C [Example 20-7]
- Genotype 1b [1]: D (D represents pEC50>10 (EC50<0.1 nM))
- Genotype 1a [2]: D (D represents pEC50>10 (EC50<0.1 nM))

Compound: COC(=O)N[C@H](C(=O)N1C[C@@H](C)C[C@H]1c1nc(-c2ccc(-c3cc(Cl)c(NC(=O)c4ccc(N5CCN(C(=O)C(C)(C)C)[C@@H](C)C5)nc4)cc3OC(F)(F)F)cc2)c[nH]1)C1CCOCC1 [Example 20-5]
- Genotype 1b [1]: D (D represents pEC50>10 (EC50<0.1 nM))
- Genotype 1a [2]: D (D represents pEC50>10 (EC50<0.1 nM))

Compound: CNC(=O)N1C[C@@H](C)N(c2ccc(NC(=O)c3ccc(-c4ccc(-c5c[nH]c([C@@H]6C[C@H](C)CN6C(=O)[C@@H](NC(=O)OC)C(C)C)n5)cc4)c(OC(F)(F)F)c3)cn2)C[C@@H]1C [Example 4-14]
- Genotype 1b [1]: D (D represents pEC50>10 (EC50<0.1 nM))
- Genotype 1a [2]: C (C represents pEC50 between and 9 and about 10, (EC50 between 1 nM and 0.1 nM))

Compound: COC(=O)N[C@H](C(=O)N1C[C@@H](OC)C[C@H]1c1nc(-c2ccc(-c3ccc(C(=O)Nc4ccc(N5CCN(C(=O)C(C)(C)C)C[C@H]5C)nc4)cc3)cc2)c[nH]1)C1CCOCC1 [Example 22-13]
- Genotype 1b [1]: D (D represents pEC50>10 (EC50<0.1 nM))
- Genotype 1a [2]: D (D represents pEC50>10 (EC50<0.1 nM))

Compound: CNC(=O)N1C[C@@H](C)N(c2ccc(C(=O)Nc3cc(C(F)(F)F)c(-c4ccc(-c5c[nH]c([C@@H]6C[C@H](C)CN6C(=O)[C@@H](NC(=O)OC)C(C)C)n5)cc4)cc3F)cn2)C[C@@H]1C [Example 1-8]
- Genotype 1b [1]: D (D represents pEC50>10 (EC50<0.1 nM))
- Genotype 1a [2]: D (D represents pEC50>10 (EC50<0.1 nM))

Compound: CNC(=O)N1CCN(c2ccc(C(=O)Nc3cc(C(F)(F)F)c(-c4ccc(-c5c[nH]c([C@@H]6C[C@H](C)CN6C(=O)[C@@H](NC(=O)OC)C(C)C)n5)cc4)cc3F)cn2)[C@H](C)C1 [Example 1-9]
- Genotype 1b [1]: D (D represents pEC50>10 (EC50<0.1 nM))
- Genotype 1a [2]: D (D represents pEC50>10 (EC50<0.1 nM))

Compound: COC(=O)NC(C(=O)N1CC(OC)CC1c1nc(-c2ccc(-c3cc(Cl)c(NC(=O)c4ccc(N5CCN(C(=O)C(C)(C)CO)CC5C)nc4)cc3OC(F)(F)F)cc2)c[nH]1)C(C)O (stereo not shown) [Example 16-7]
- Genotype 1b [1]: D (D represents pEC50>10 (EC50<0.1 nM))
- Genotype 1a [2]: D (D represents pEC50>10 (EC50<0.1 nM))

Compound: COC(=O)N[C@H](C(=O)N1C[C@@H](C)C[C@H]1c1nc(-c2ccc(-c3ccc(NC(=O)c4ccc(N5CCN(C(=O)[C@H]6CC6(C)C)C[C@H]5C)nc4)cc3C(F)(F)F)cc2)c[nH]1)C(C)C [Example 1-62]
- Genotype 1b [1]: D (D represents pEC50>10 (EC50<0.1 nM))
- Genotype 1a [2]: D (D represents pEC50>10 (EC50<0.1 nM))

Compound: COC(=O)N[C@H](C(=O)N1C[C@@H](C)C[C@H]1c1nc(-c2ccc(-c3ccc(C(=O)Nc4ccc(N5C[C@H](C)N(C(=O)C6CC6C)C[C@H]5C)nc4)cc3OC(F)(F)F)cc2)c[nH]1)C(C)C (stereo partly shown) [Example 4-17]
- Genotype 1b [1]: D (D represents pEC50>10 (EC50<0.1 nM))
- Genotype 1a [2]: C (C represents pEC50 between and 9 and about 10, (EC50 between 1 nM and 0.1 nM))

Compound: COCC(=O)N1CCC[C@@]1(C)C(=O)N1CCN(c2ccc(NC(=O)c3ccc(-c4ccc(-c5c[nH]c([C@@H]6C[C@H](SC)CN6C(=O)[C@@H](NC(=O)OC)C(C)C)n5)cc4)c(OC(F)(F)F)c3)cn2)[C@H](C)C1 [Example 6-10]
- EC50 [1]: < 0.1 nM
- EC50 [2]: < 0.1 nM

Compound: COC(=O)N[C@H](C(=O)N1C[C@@H](C)C[C@H]1c1nc(-c2ccc(-c3cc(Cl)c(C(=O)Nc4ccc(N5CCN(C(=O)C(C)(C)CO)C[C@H]5C)nc4)cc3OC(F)(F)F)cc2)c(Cl)[nH]1)C1CCOCC1 [Example 22-9]
- EC50 [1]: < 0.1 nM
- EC50 [2]: < 0.1 nM

Compound: COC(=O)N[C@H](C(=O)N1C[C@@H](SC)C[C@H]1c1nc(-c2ccc(-c3cc(Cl)c(NC(=O)c4ccc(N5CCN(C(=O)[C@H]6CC6(C)C)C[C@H]5C)nc4)cc3OC(F)(F)F)cc2)c[nH]1)C(C)C [Example 5-4]
- EC50 [1]: < 0.1 nM
- EC50 [2]: < 0.1 nM

Compound: COC(=O)NC(C(=O)N1CC(C)CC1c1nc(-c2ccc(-c3cc(Cl)c(NC(=O)c4ccc(N5CCN(C(=O)C6CC6(F)F)CC5C)nc4)cc3C(F)(F)F)cc2)c[nH]1)C(C)C (mixture of isomers) [Example 1-55]
- Genotype 1b [1]: D (D represents pEC50>10 (EC50<0.1 nM))
- Genotype 1a [2]: D (D represents pEC50>10 (EC50<0.1 nM))

Compound: COC(=O)N[C@H](C(=O)N1C[C@@H](C)C[C@H]1c1nc(-c2ccc(-c3cc(Cl)c(NC(=O)c4ccc(N5CCN(C(=O)C(C)(C)CO)C[C@H]5C)nc4)cc3OC(F)(F)F)cc2)c[nH]1)C(C)(C)O [Example 13-16]
- EC50 [1]: < 0.1 nM
- EC50 [2]: < 0.1 nM

Compound: COC(=O)N[C@H](C(=O)N1C[C@@H](C)C[C@H]1c1nc(-c2ccc(-c3ccc(C(=O)Nc4ccc(N5C[C@H](C)N(C(=O)C6CC6)C[C@H]5C)nc4)cc3OC(F)(F)F)cc2)c(Cl)[nH]1)C(C)C [Example 4-11]
- Genotype 1b [1]: D (D represents pEC50>10 (EC50<0.1 nM))
- Genotype 1a [2]: D (D represents pEC50>10 (EC50<0.1 nM))

Compound: COC(=O)N[C@H](C(=O)N1C[C@@H](C)C[C@H]1c1nc(-c2ccc(-c3cc(Cl)c(NC(=O)c4ccc(N5CCN(C(=O)C(C)(C)F)C[C@H]5C)nc4)cc3OC(F)(F)F)cc2)c[nH]1)C(C)C [Example 1-96]
- Genotype 1b [1]: D (D represents pEC50>10 (EC50<0.1 nM))
- Genotype 1a [2]: D (D represents pEC50>10 (EC50<0.1 nM))

Compound: COC(=O)N[C@H](C(=O)N1C[C@@H](C)C[C@H]1c1nc(-c2ccc(-c3cc(Cl)c(NC(=O)c4ccc(N5CCN(C(=O)C6CC(O)C6)C[C@H]5C)nc4)cc3OC(F)(F)F)cc2)c[nH]1)C(C)C (stereo partly shown) [Example 12-47]
- EC50 [1]: < 0.1 nM
- EC50 [2]: < 0.1 nM

Compound: COC(=O)N[C@H](C(=O)N1C[C@@H](C)C[C@H]1c1nc(-c2ccc(-c3ccc(C(=O)Nc4ccc(N5CCN(C(=O)[C@H]6CC6(C)C)C[C@H]5C)nc4)cc3)cc2)c[nH]1)C(C)C [Example 4-1]
- Genotype 1b [1]: D (D represents pEC50>10 (EC50<0.1 nM))
- Genotype 1a [2]: D (D represents pEC50>10 (EC50<0.1 nM))

Compound: CNC(=O)N1CCN(c2ccc(NC(=O)c3ccc(-c4ccc(-c5c[nH]c([C@@H]6C[C@@H]7CCCC[C@@H]7N6C(=O)[C@@H](NC(=O)OC)C(C)C)n5)cc4)c(OC(F)(F)F)c3)cn2)[C@H](C)C1 [Example 6-11]
- EC50 [1]: < 0.1 nM
- EC50 [2]: 0.1 to 1 nM

Compound: COC(=O)N[C@H](C(=O)N1C[C@@H](OC)C[C@H]1c1nc(-c2ccc(-c3ccc(NC(=O)c4ccc(N5CCN(C(=O)C(C)(C)C)C[C@H]5C)nc4)cc3OC(F)(F)F)cc2)c[nH]1)C1CCOCC1 [Example 28-2]
- Genotype 1b [1]: D (D represents pEC50>10 (EC50<0.1 nM))
- Genotype 1a [2]: D (D represents pEC50>10 (EC50<0.1 nM))

Compound: COC(=O)N[C@H](C(=O)N1C[C@@H](C)C[C@H]1c1nc(-c2ccc(-c3cc(F)c(NC(=O)c4ccc(N5C[C@H](C)N(C(=O)C6CC6)C[C@H]5C)nc4)cc3OC(F)(F)F)cc2)c[nH]1)C(C)C [Example 1-15]
- Genotype 1b [1]: D (D represents pEC50>10 (EC50<0.1 nM))
- Genotype 1a [2]: D (D represents pEC50>10 (EC50<0.1 nM))

Compound: COC(=O)N[C@H](C(=O)N1C[C@@H](C)C[C@H]1c1nc(-c2ccc(-c3cc(Cl)c(NC(=O)c4ccc(N5CCN(C(=O)c6ncc[nH]6)C[C@H]5C)nc4)cc3OC(F)(F)F)cc2)c[nH]1)C(C)C [Example 1-35]
- Genotype 1b [1]: D (D represents pEC50>10 (EC50<0.1 nM))
- Genotype 1a [2]: D (D represents pEC50>10 (EC50<0.1 nM))

Compound: COC(=O)N[C@H](C(=O)N1C[C@@H](C)C[C@H]1c1nc(-c2ccc(-c3cc(F)c(NC(=O)c4ccc(N5CCN(C(=O)C(C)(C)C)C[C@H]5C)nc4)cc3OC(F)(F)F)cc2)c[nH]1)C1CCOCC1 [Example 13-22]
- EC50 [1]: < 0.1 nM
- EC50 [2]: < 0.1 nM

Compound: COC[C@H]1C[C@@H](c2nc(-c3ccc(-c4cc(Cl)c(C(=O)Nc5ccc(N6CCN(C(=O)C(C)(C)C)C[C@H]6C)nc5)cc4OC(F)(F)F)cc3)c[nH]2)N(C(=O)[C@@H](NC(=O)OC)C2CCOCC2)C1 [24-6]
- Genotype 1b [1]: D (D represents pEC50>10 (EC50<0.1 nM))
- Genotype 1a [2]: D (D represents pEC50>10 (EC50<0.1 nM))
